Test results taken from patent US20250049869A1, “USE OF AURICULARIA AURICULA TOTAL POLYSACCHARIDE OR MONOMERIC POLYSACCHARIDE IN PREPARATION OF PD-L1 INHIBITOR” (priority 2023, published 2025).
Entries after “also recorded” stand apart in the source; their conditions may differ.

What was measured:
PD-L1/PD-1 interaction = biological target: T1, PD-L1/PD-1 interaction (Homo sapiens, UniProt Q9NZQ7); test: PD-1Fc binding to PD-L1 on NCI-H157 cells (flow cytometry and confocal); type: cell-based; settings: 24 h of ME-2 treatment, human recombinant PD-1Fc, dose-dependent
T1 construct: NCI-H157 cells were inoculated on a 24-well cell culture plate; endogenous in cells; host or cells: NCI-H157
T1 sequence (Q9NZQ7 19-290): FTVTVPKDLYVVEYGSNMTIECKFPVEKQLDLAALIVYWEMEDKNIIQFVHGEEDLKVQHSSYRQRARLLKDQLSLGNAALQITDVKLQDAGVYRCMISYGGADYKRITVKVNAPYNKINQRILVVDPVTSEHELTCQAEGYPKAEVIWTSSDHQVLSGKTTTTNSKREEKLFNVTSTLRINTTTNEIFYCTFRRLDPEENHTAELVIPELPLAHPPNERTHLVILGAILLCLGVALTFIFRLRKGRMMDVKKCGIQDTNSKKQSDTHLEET
Description: NCI-H157 cells were inoculated on a 24-well cell culture plate and subjected to gradient dosing treatment for time needed after cell adhesion. The cells were fixed at room temperature with a 4% solution of paraformaldehyde. The cells were washed with PBS buffer several times. An appropriate amount of human recombinant PD-1Fc protein was added to the fixed cells and incubated for 1 h, and the cells were washed with PBS buffer several times. Anti-human IgG (Alexa Fluor 488) fluorescent secondary antibody was added and incubated for 30 min. After nuclear staining, a glycerol sealing layer was applied. Green fluorescence signals were observed under a fluorescence microscope and photographed for statistics, or the fluorescence intensity was measured by flow cytometry.

[1] = tested on: LLC lung cancer transplanted tumor; test: Mouse lung cancer (LLC) transplanted tumor model
PD-L1 protein = PD-L1 protein (Homo sapiens, UniProt Q9NZQ7); test: SPR affinity analysis with PD-L1 protein (Biacore 8K, CM5 chip); type: binding
Chain of PD-L1 protein (Q9NZQ7 19-290, species assumed): as the sequence (Q9NZQ7 19-290) above
Description: Biacore 8K high-throughput molecular interaction analysis system, CM5 chip, and phosphate buffered saline (PBS) buffer as the mobile phase of the instrument were used in the whole process of the surface plasmon resonance experiment. The PD-L1 was coupled to the activated CM5 chip using an amino coupling kit. […] After 60 s of dissociation, the chip was regenerated with 10 mM glycine-HCl (pH2.0) and 3 M NaCl at a flow rate of 30 L/min for 30 s. Biacore Evaluation 3.1 software and GraphPad Prism 8.0 software were used to analyze the data and obtain the response curve.

LLC cells = test: CCK8 in vitro cytotoxicity assay, LLC; type: cell-based, mouse; settings: CCK8, gradient concentration, 24 h
Description: (§1) CCK8 was used to detect the cytotoxicity of ME-2 to NCI-H157 and LLC cells. H157 or LLC cells were inoculated overnight in 96-well cell culture plate at a concentration of 1×10^4/mL. The gradient concentration of ME-2 was prepared in the medium, and CCK8 solution was added into the 96-well cell culture plate after 24 h of action. OD values were measured at 450 nm by an enzyme-linked immunosorbent assay (ELISA) instrument.

PD-L1 and PD-1 protein = PD-L1 and PD-1 protein (Homo sapiens, UniProt Q9NZQ7); test: SPR competitive experiment between ME-2 and PD-1 for PD-L1; type: binding
Chain of PD-L1 and PD-1 protein (Q9NZQ7 19-238 limits assumed, species assumed): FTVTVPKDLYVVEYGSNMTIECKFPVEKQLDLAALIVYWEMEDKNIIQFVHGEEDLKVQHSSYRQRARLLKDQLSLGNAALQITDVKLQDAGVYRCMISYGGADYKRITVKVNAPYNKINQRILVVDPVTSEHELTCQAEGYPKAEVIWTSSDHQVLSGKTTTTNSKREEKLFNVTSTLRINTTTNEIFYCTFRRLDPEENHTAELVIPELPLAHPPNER
From the text: Biacore 8K high-throughput molecular interaction analysis system, CM5 chip, and phosphate buffered saline (PBS) buffer as the mobile phase of the instrument were used in the whole process of the surface plasmon resonance experiment. The PD-L1 was coupled to the activated CM5 chip using an amino coupling kit. […] The ME-2 polysaccharide solution with different concentrations was passed through the coupling channel and the blank channel at a certain velocity by using the running buffer. After 60 s of dissociation, the chip was regenerated with 10 mM glycine-HCl (pH2.0) and 3 M NaCl at a flow rate of […] for 30 s. Biacore Evaluation 3.1 software and GraphPad Prism 8.0 software were used to analyze the data and obtain the response curve.

NCI-H157 cells [2] = test: Co-culture of H157 tumor cells with stimulated Jurkat T cells, crystal violet staining; type: cell-based; settings: gradient dosing, co-culture 24 h
Description: In order to further evaluate the anti-tumor effect of ME-2 in the experiment of co-culture of tumor cells and T cells, H157 cells were inoculated into a 24-well culture plate, subjected to gradient dosing treatment for time needed, and co-cultured with stimulated Jurkat T cells for 24 h. The tumor survival was observed under a microscope after 4% polyformaldehyde fixation and crystal violet staining. The specific manifestation was the difference in the depth of staining in the different dosages and concentrations of ME-2.

PD-L1 [3] = test: Western blot of PD-L1 expression in mouse lung cancer LLC cells; type: cell-based; settings: concentration and time gradient, most significant at 2 mg/mL, 24 h
Description: (§2) The tumor cells in question were non-small cell lung cancer NCI-H157, mouse lung cancer LLC, colon cancer SW620, human osteosarcoma U2OS, non-small cell lung cancer A549, liver cancer HepG-2, and breast cancer MCF-7. The total protein of the above cells was extracted; the protein concentration was determined by bicinchoninic acid (BCA) assay. The samples were loaded and subjected to sodium dodecyl sulfate (SDS) polyacrylamide gel electrophoresis (SDS-PAGE); the membrane was blocked and immunoreacted after transfer, and an enhanced chemiluminescence (ECL) solution was used for development. Picture processing and gray value analysis were performed on the exposure results on ImageJ software. According to the experimental results, the cell lines with high expression of PD-L1 were selected as follows: NCI-H157, LLC, U2OS, and SW620; and the cell lines with low or no expression of PD-L1 were A549, HepG-2, and MCF-7 (see FIGS. 3A and 3B).
Concentration and time gradient ME-2 were applied to act on four tumor cell lines with high expression of PD-L1, respectively. The Western blot method was used for detection, and the experimental method was shown above. […] The downregulation of tumor cell baseline PD-L1 was concentration dependent (see FIG. 5A) and time dependent (see FIG. 5B). […]

PD-L1 [4] = test: Flow cytometry of PD-L1 expression in NCI-H157 cells; type: cell-based; settings: flow cytometry, 1, 2 and 5 mg/mL
Description: (§3) NCI-H157 or LLC cells in a 6-well plate were treated with low, medium, and high doses of ME-2 at 1, 2, and 5 mg/mL, respectively, for corresponding time, and the cells were stained with a fluorescent antibody. Fluorescence intensity was measured by flow cytometry.

PD-1 protein = PD-1 protein (Homo sapiens, UniProt Q15116); test: SPR affinity analysis with PD-1 protein; type: binding
Chain of PD-1 protein (Q15116 25-288): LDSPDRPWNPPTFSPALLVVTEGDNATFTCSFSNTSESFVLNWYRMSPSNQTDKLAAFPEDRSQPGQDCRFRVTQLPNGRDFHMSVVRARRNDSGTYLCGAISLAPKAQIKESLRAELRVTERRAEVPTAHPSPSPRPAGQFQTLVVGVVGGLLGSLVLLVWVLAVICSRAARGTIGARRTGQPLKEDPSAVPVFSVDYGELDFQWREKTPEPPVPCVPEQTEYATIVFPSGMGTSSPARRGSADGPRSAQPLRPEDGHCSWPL

PD-L1 [5] = test: Western blot of IFN-γ-induced PD-L1 expression (A549, HepG-2, MCF-7); type: cell-based; settings: ME-2 and IFN-γ co-acted on cells
Description: as §2
Interferon IFN-γ is an important factor in inducing PD-L1 expression in the tumor immune microenvironment. We used low-expression PD-L1 tumor cells (non-small cell lung cancer A549, liver cancer HepG-2, and breast cancer MCF-7). ME-2 and IFN-γ were co-acted on cells; their expression abundance was detected by the Western blot method, and the experimental method was shown above.

NCI-H157 cells [6] = test: CCK8 in vitro cytotoxicity assay, NCI-H157; type: cell-based; settings: CCK8, gradient concentration, 24 h
Description: as §1

PD-L1 [7] = test: Western blot of PD-L1 expression in tumor cells with high expression of PD-L1 (NCI-H157, U2OS, SW620); type: cell-based, human; settings: concentration and time gradient, most significant at 2 mg/mL, 24 h
Description: as §2
Concentration and time gradient ME-2 were applied to act on four tumor cell lines with high expression of PD-L1, respectively. The Western blot method was used for detection, and the experimental method was shown above. […] The downregulation of tumor cell baseline PD-L1 was concentration dependent (see FIG. 5A) and time dependent (see FIG. 5B). The downregulation of PD-L1 was most significant when the dose concentration was 2 mg/mL and the administration time was 24 h.
A Western blot was used to detect the effects of Auricularia auricula total polysaccharide METP and Auricularia auricula deacetylated monomeric polysaccharide dME-2 on the expression of PD-L1 in H157 cells, and Auricularia auricula monomeric polysaccharide ME-2 was used as a positive control. The experimental procedure was described in Example 1.

PD-L1 [8] = test: Flow cytometry of PD-L1 expression in LLC cells; type: cell-based, mouse; settings: flow cytometry, 1, 2 and 5 mg/mL
Description: as §3

Substance: high-acetyl glucuronoxylogalactoglucomannan [ME-2]
- PD-1 binding to PD-L1 in NCI-H157 cells (PD-L1/PD-1 interaction): decreased
- HE staining of vital organs of mice ([1]; ME-2 100 mg/kg): did not cause organic changes
- serum indexes of mice ([1]; ME-2 100 mg/kg): consistent with those of the control group
- tumor growth in model mice ([1]; ME-2 100 mg/kg, oral administration, 100 mg/kg): obvious better than a positive drug; also recorded: effectively inhibited
- toxic and side effects on mice ([1]; ME-2 at the dosage used (100 mg/kg)): no obvious toxic and side effects
- body weight of mice ([1]; ME-2 experiment, all groups): no significant difference
- PD-L1 mRNA level in mouse tumors ([1]; qPCR, ME-2 treated mice): significantly reduce
- affinity to PD-L1 protein (in words) (PD-L1 protein): strong affinity
- cytotoxicity / proliferation of LLC cells (LLC cells): no obvious cytotoxicity
- binding of PD-L1 and PD-1 protein with increasing concentration of ME-2 (PD-L1 and PD-1 protein): significantly inhibited
- sensitivity of NCI-H157 cells to killing by Jurkat T cells (NCI-H157 cells [2]): more sensitive to the killing of Jurkat T cells
- abundance of PD-L1 in LLC cells (PD-L1 [3]): significantly down-regulated
- PD-L1 fluorescence intensity in NCI-H157 cells (PD-L1 [4]): concentration dependent inhibition
- affinity to PD-1 protein (in words) (PD-1 protein): no affinity
- IFN-γ-induced expression of PD-L1 in A549 cells (PD-L1 [5]): significantly down-regulated
- IFN-γ-induced expression of PD-L1 in HepG-2 cells (PD-L1 [5]): significantly down-regulated
- IFN-γ-induced expression of PD-L1 in MCF-7 cells (PD-L1 [5]): significantly down-regulated
- cytotoxicity / proliferation of NCI-H157 cells (NCI-H157 cells [6]): no obvious cytotoxicity
- abundance of PD-L1 in NCI-H157 cells (PD-L1 [7]): significantly down-regulated
- abundance of PD-L1 in SW620 cells (PD-L1 [7]): significantly down-regulated
- abundance of PD-L1 in U2OS cells (PD-L1 [7]): significantly down-regulated
- PD-L1 fluorescence intensity in LLC cells (PD-L1 [8]): concentration dependent inhibition
